pKi: −log10 of the molar value. Where a SMILES comes first, the peptide text is derived from it. Where no end group is shown, it is not given here. [ ]: non-standard residue; d: D form. The star is where a group is joined. Sta = CC(C)C[C@H](N)[C@@H](O)CC(=O)O; Nle = CCCC[C@H](N)C(=O)O; Cbz = O=C(OCc1ccccc1)*; Boc = CC(C)(C)OC(=O)*
Assays:
[1] = system: HIV-1 IIIB; experiment: Antiviral cytotoxicity (MTT) assay with MT4 cells, HIV-1 IIIB; format: cell-based; conditions: MT-4 cells, 5 days, average of 2 or 3 experiments
[2] = system: HIV NL4-3; experiment: Antiviral cytotoxicity (MTT) assay with MT4 cells, HIV NL4-3; format: cell-based, HIV-1; conditions: MT-4 cells, 5 days, average of 2 or 3 experiments
Procedure: Antiviral potency of the peptides was analyzed against HIV-1 HXB2 or NLA-3 strains using a cytotoxicity assay with MT4 cells as previously described (ref 1-3) with minor modifications. MT-4 cells (1.5×10^4/ml) were exposed to 200 50% tissue culture infective doses (TCID50) of viruses in the presence of various concentrations of test compound in 96 well microtiter plates and incubated at 37° C. for 5 days. Cytotoxicity of HIV was measured by the addition of 3-(4,5-dimethylthiazol-2-yl)-2,5-diphenytetrazolium bromide (MMI) solution to each well to a final concentration of 0.75 mg/ml, and incubation for 1 hour a 37° C. After incubation, cells were dissolved in isopropanoyrriton-X 100/HCl (1000:50:25) solution. Absorbance was monitored in a microplate reader (Spectramax, Molecular Devices) at 540 rm and 690 nm. MT-4 cells were obtained from the AIDS Research and Reference Reagent Program (ARRRP, Division of AIDS, NIAID, NIH: MT-4 from Dr. D. Richman). Cells were propagated in RPMI 1640 growth medium supplemented with 10% fetal bovine serum, 50U of penicillin and 50 μg of streptomycin per ml ([Ivitrogen, Carlsbad Calif.).

[3] = molecular target: T1, Human plasma renin (Homo sapiens, UniProt P00797); conditions: cited from earlier work; for IC50: literature values
T1 construct: plasma renin
T1 sequence (P00797 67-406): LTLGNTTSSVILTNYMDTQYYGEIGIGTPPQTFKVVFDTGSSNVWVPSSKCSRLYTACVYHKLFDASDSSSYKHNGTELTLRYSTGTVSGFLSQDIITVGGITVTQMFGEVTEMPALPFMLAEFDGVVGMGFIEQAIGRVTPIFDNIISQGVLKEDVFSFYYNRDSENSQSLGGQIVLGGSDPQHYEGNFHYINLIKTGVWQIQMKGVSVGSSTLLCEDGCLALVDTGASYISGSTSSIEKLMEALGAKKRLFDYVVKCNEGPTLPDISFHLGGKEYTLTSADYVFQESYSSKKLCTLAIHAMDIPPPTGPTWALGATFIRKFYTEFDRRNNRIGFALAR

| Molecule | IC50 [3] | other results |
| --- | --- | --- |
| CCCC[C@H](NC(=O)[C@H](Cc1c[nH]c2ccccc12)NC(C)=O)C(=O)N[C@@H](CCC(=O)O)C(=O)N[C@@H](Cc1c[nH]c2ccccc12)C(=O)N[C@@H](CC(=O)O)C(=O)N[C@@H](CCCNC(=N)N)C(=O)N[C@@H](CCC(=O)O)C(=O)N[C@@H](CCC(N)=O)C(=O)N[C@@H](CC(N)=O)C(=O)N[C@@H](CC(N)=O)C(=O)N[C@@H](Cc1ccc(O)cc1)C(=O)N[C@H](C(=O)N[C@@H](CO)C(=O)N[C@@H](CC(C)C)C(=O)N[C@H](C(=O)N[C@@H](Cc1c[nH]cn1)C(=O)N[C@@H](CO)C(=O)N[C@@H](CC(C)C)C(=O)N[C@H](C(=O)N[C@@H](CCC(=O)O)C(=O)N[C@@H](CCC(=O)O)C(=O)N[C@@H](CO)C(=O)N[C@@H](CCC(N)=O)C(=O)N[C@@H](CC(N)=O)C(=O)N[C@@H](CCC(N)=O)C(=O)N[C@@H](CCC(N)=O)C(=O)N[C@@H](CCC(=O)O)C(=O)N[C@@H](CCCCN)C(=O)N[C@@H](CC(N)=O)C(=O)N[C@@H](CCC(=O)O)C(=O)N[C@@H](CCC(N)=O)C(=O)N[C@@H](CCC(=O)O)C(=O)N[C@@H](CC(C)C)C(=O)N[C@@H](CC(C)C)C(N)=O)[C@@H](C)CC)[C@@H](C)CC)[C@@H](C)O [peptide 2, Ac-WXEWDREQNNYTSLIHSLIEESQNQQEKNEQELL-NH2] (Ac-W[Nle]EWDREQNNYTSLIHSLIEESQNQQEKNEQELL-NH2) |  | IC50 [1]: 2.4 nM; IC50 [2]: 18 nM |
| CCCC[C@H](NC(=O)[C@H](Cc1c[nH]c2ccccc12)NC(C)=O)C(=O)N[C@@H](CCC(=O)O)C(=O)N[C@@H](Cc1c[nH]c2ccccc12)C(=O)N[C@@H](CC(=O)O)C(=O)N[C@@H](CCCNC(=N)N)C(=O)N[C@@H](CCC(=O)O)C(=O)N[C@@H](Cc1c[nH]c2ccccc12)C(=O)N[C@@H](CC(N)=O)C(=O)N[C@@H](CC(N)=O)C(=O)N[C@@H](Cc1ccc(O)cc1)C(=O)N[C@H](C(=O)N[C@@H](CO)C(=O)N[C@@H](CC(C)C)C(=O)N[C@H](C(=O)N[C@@H](Cc1c[nH]cn1)C(=O)N[C@@H](CO)C(=O)N[C@@H](CC(C)C)C(=O)N[C@H](C(=O)N[C@@H](CCC(=O)O)C(=O)N[C@@H](CCC(=O)O)C(=O)N[C@@H](CO)C(=O)N[C@@H](CCC(N)=O)C(=O)N[C@@H](CC(N)=O)C(=O)N[C@@H](CCC(N)=O)C(=O)N[C@@H](CCC(N)=O)C(=O)N[C@@H](CCC(=O)O)C(=O)N[C@@H](CCCCN)C(=O)N[C@@H](CC(N)=O)C(=O)N[C@@H](CCC(=O)O)C(=O)N[C@@H](CCC(N)=O)C(=O)N[C@@H](CCC(=O)O)C(=O)N[C@@H](CC(C)C)C(=O)N[C@@H](CC(C)C)C(N)=O)[C@@H](C)CC)[C@@H](C)CC)[C@@H](C)O [peptide 3, Ac-WXEWDREWNNYTSLIHSLIEESQNQQEKNEQELL-NH2] (Ac-W[Nle]EWDREWNNYTSLIHSLIEESQNQQEKNEQELL-NH2) |  | IC50 [1]: 1.7 nM; IC50 [2]: 7.6 nM |
| CCCC[C@H](NC(=O)[C@H](Cc1c[nH]c2ccccc12)NC(C)=O)C(=O)N[C@@H](CCC(=O)O)C(=O)N[C@@H](Cc1c[nH]c2ccccc12)C(=O)N[C@@H](CC(=O)O)C(=O)N[C@@H](CCCNC(=N)N)C(=O)N[C@@H](CCC(=O)O)C(=O)N[C@H](C(=O)N[C@@H](CC(N)=O)C(=O)N[C@@H](CC(N)=O)C(=O)N[C@@H](Cc1ccc(O)cc1)C(=O)N[C@H](C(=O)N[C@@H](CO)C(=O)N[C@@H](CC(C)C)C(=O)N[C@H](C(=O)N[C@@H](Cc1c[nH]cn1)C(=O)N[C@@H](CO)C(=O)N[C@@H](CCC(N)=O)C(=O)N[C@H](C(=O)N[C@@H](CCC(=O)O)C(=O)N[C@@H](CCC(=O)O)C(=O)N[C@@H](CO)C(=O)N[C@@H](CCC(N)=O)C(=O)N[C@@H](CC(N)=O)C(=O)N[C@@H](CCC(N)=O)C(=O)N[C@@H](CCC(N)=O)C(=O)N[C@@H](CCC(=O)O)C(=O)N[C@@H](CCCCN)C(=O)N[C@@H](CC(N)=O)C(=O)N[C@@H](CCC(=O)O)C(=O)N[C@@H](CCC(N)=O)C(=O)N[C@@H](CCC(=O)O)C(=O)N[C@@H](CC(C)C)C(=O)N[C@@H](CC(C)C)C(N)=O)[C@@H](C)CC)[C@@H](C)CC)[C@@H](C)O)[C@@H](C)CC [peptide 5, Ac-WXEWDREINNYTSLIHSQIEESQNQQEKNEQELL-NH2] (Ac-W[Nle]EWDREINNYTSLIHSQIEESQNQQEKNEQELL-NH2) |  | IC50 [1]: 6.6 nM; IC50 [2]: 200 nM |
| CCCC[C@H](NC(=O)[C@H](Cc1c[nH]c2ccccc12)NC(C)=O)C(=O)N[C@@H](CCC(=O)O)C(=O)N[C@@H](Cc1c[nH]c2ccccc12)C(=O)N[C@@H](CC(=O)O)C(=O)N[C@@H](CCCNC(=N)N)C(=O)N[C@@H](CCCCN)C(=O)N[C@H](C(=O)N[C@@H](CCC(=O)O)C(=O)N[C@@H](CCC(=O)O)C(=O)N[C@@H](Cc1ccc(O)cc1)C(=O)N[C@H](C(=O)N[C@@H](CCCCN)C(=O)N[C@@H](CCCCN)C(=O)N[C@H](C(=O)N[C@@H](CCCCN)C(=O)N[C@@H](CCCCN)C(=O)N[C@@H](CC(C)C)C(=O)N[C@H](C(=O)N[C@@H](CCC(=O)O)C(=O)N[C@@H](CCC(=O)O)C(=O)N[C@@H](CO)C(=O)N[C@@H](CCC(N)=O)C(=O)N[C@@H](CCC(=O)O)C(=O)N[C@@H](CCC(N)=O)C(=O)N[C@@H](CCC(N)=O)C(=O)N[C@@H](CCC(=O)O)C(=O)N[C@@H](CCCCN)C(=O)N[C@@H](CC(N)=O)C(=O)N[C@@H](CCC(=O)O)C(=O)N[C@@H](CCCCN)C(=O)N[C@@H](CCC(=O)O)C(=O)N[C@@H](CC(C)C)C(=O)N[C@@H](CCCCN)C(N)=O)[C@@H](C)CC)[C@@H](C)CC)[C@@H](C)O)[C@@H](C)CC [peptide 6, Ac-WXEWDRKIEEYTKKIKKLIEESQEQQEKNEKELK-NH2] (Ac-W[Nle]EWDRKIEEYTKKIKKLIEESQEQQEKNEKELK-NH2) |  | IC50 [1]: 2.4 nM; IC50 [2]: 1.2 nM |
| CCCC[C@H](NC(=O)[C@H](Cc1c[nH]c2ccccc12)NC(C)=O)C(=O)N[C@@H](CCC(=O)O)C(=O)N[C@@H](Cc1c[nH]c2ccccc12)C(=O)N[C@@H](CC(=O)O)C(=O)N[C@@H](CCCNC(=N)N)C(=O)N[C@@H](CCCCN)C(=O)N[C@H](C(=O)N[C@@H](CCC(=O)O)C(=O)N[C@@H](CCC(=O)O)C(=O)N[C@@H](Cc1ccc(O)cc1)C(=O)N[C@H](C(=O)N[C@@H](CCCCN)C(=O)N[C@@H](CCCCN)C(=O)N[C@H](C(=O)N[C@@H](CCCCN)C(=O)N[C@@H](CCCCN)C(=O)N[C@@H](CC(C)C)C(=O)N[C@H](C(=O)N[C@@H](CCC(=O)O)C(=O)N[C@@H](CCC(=O)O)C(=O)N[C@@H](CO)C(=O)N[C@@H](CCC(N)=O)C(=O)N[C@@H](CCC(=O)O)C(=O)N[C@@H](CC(C)C)C(=O)N[C@@H](CCC(N)=O)C(=O)N[C@@H](CCC(=O)O)C(=O)N[C@@H](CCCCN)C(=O)N[C@@H](CC(N)=O)C(=O)N[C@@H](CCC(=O)O)C(=O)N[C@@H](CCCCN)C(=O)N[C@@H](CCC(=O)O)C(=O)N[C@@H](CC(C)C)C(=O)N[C@@H](CCCCN)C(N)=O)[C@@H](C)CC)[C@@H](C)CC)[C@@H](C)O)[C@@H](C)CC [peptide 7, Ac-WXEWDRKIEEYTKKIKKLIEESQELQEKNEKELK-NH2] (Ac-W[Nle]EWDRKIEEYTKKIKKLIEESQELQEKNEKELK-NH2) |  | IC50 [1]: 2.4 nM; IC50 [2]: 1.1 nM |
| Ac-(HCO-Trp)-Pro-Phe-His-Sta---Ile-NH2 | 0.1 nM |  |
| Ac-HPFV[Sta]LF-NH2 | 32 nM |  |
| Ac-His-Pro-Phe-His-ACHPA---Leu-Phe-NH2 | 0.5 nM |  |
| Ac-WPFH[Sta]I-NH2 | 16 nM |  |
| Boc-FH[Sta]A[Sta]-OMe | 27 nM |  |
| Boc-His-Pro-Phe-His-Leu(CH(OH)CH2)Val-Ile-His-OH | 0.7 nM |  |
| Boc-Phe-His-ACHPA---Leu-AMB | 1 nM |  |
| Boc-Phe-His-Cha-(CH2NH)Val-NH-2(S)-Me(Bu) | 86 nM |  |
| Boc-Phe-His-Sta---Ile-AMP | 6 nM |  |
| Boc-Phe-His-Sta---Leu-AMB | 9 nM |  |
| Boc-Phe-His-Sta---Leu-NHCH2Ph | 26 nM |  |
| Boc-Pro-Phe-His-Sta---Ile-AMP | 4.1 nM |  |
| Cbz-RRPFH[Sta]IHK(Boc)-OMe | 1 nM |  |
| Iva-His-Pro-Phe-His-Sta---Ala-Sta |  | pKi ([3]; cell marked (Ki)): 8.72 |
| Iva-Phe-Nle-Sta-Ala-Sta | 28 nM |  |
| PEC-Phe-His-ACHPA-ILeNHC(CH2OH)2CH3 | < 0.01 nM |  |
| PHPFH[Sta]IF-NH2 | 3 nM |  |
| PHPFH[Sta]IH[dK] | 26 nM |  |
| Pro-His-Pro-Phe-His-Leu(CH2NH)Val-Ile-His-Lys | 10 nM |  |

Reference: US20070207952A1, “Long Acting Biologically Active Conjugates” (priority 2003, published 2007)
